Source: patent publication US20260091103A1, “NOVEL COMPOSITIONS COMPRISING TERPENOID AND MACROMOLECULE, AND USES THEREOF” (Powin Biomedical Co., Ltd., priority 2022, published 2026)
“Also recorded” adds a separate entry of the source.

Legend:
dendritic cells (CD11c+) = experiment: Antigen-presenting cell recruitment in injected quadriceps muscle: dendritic cells (flow cytometry); assay type: in vivo, BALB/c mice; settings: 50 μL i.m. into right quadriceps, versus vehicle-injected left quadriceps
Method: (§1) 15 BALB/c mice were randomly assigned into 5 groups (three mice per group), which were Paraffin oil@HACH group, Squalane@HACH group, Squalene@HACH group, Ocimene@HACH group, and Farnesene@HACH group.
(§2) 50 μL of the composition comprising Paraffin oil@HACH particles, composition comprising Squalane@HACH particles, composition comprising Squalene@HACH particles, composition comprising Ocimene@HACH particles, or composition comprising Farnesene@HACH particles (the test samples in this experiment) was injected intramuscularly into the right quadriceps of mice in the Paraffin oil@HACH group, Squalane@HACH group, Squalene@HACH group, Ocimene@HACH group, and Farnesene@HACH group, respectively; and 50 μL of sodium citrate buffer (pH=6.5) (the vehicle control in this experiment) was injected intramuscularly into the left quadriceps of mice in these groups to monitor the effect induced by the injection on each mouse.
(§3) The mice in each group were sacrificed at 5th day after injection.
(§4) The left quadriceps muscles and the right quadriceps muscles of each mouse were harvested respectively. The tendons were removed, and muscles were digested with 3 mL of phosphate buffered saline (PBS) containing 0.05% (w/v) type II collagenase, 10 μg/mL of DNase I, and 0.5% BSA at 37° C. for 40 min. The muscle digestion was quenched by the addition of excess medium; and then the cell suspension was collected by centrifugation at 1200 rpm for 5 min, resuspended in PBS, and filtered through a 70-μm nylon mesh (BD-Biosciences).
The degree of dendritic cell (CD11c^+) recruitment in each mouse was assessed according to the following formula (VI): […]
(§5) The experimental procedure was roughly the same as that described in Experiment 1-4. The only differences were the compositions administered to the mice.
(§6) Cholesterol group: 50 μL of the N-methyl-2-pyrrolidone (NMP) solution comprising cholesterol (0.25 mg/mL) (the test sample in this group) was injected intramuscularly into the right quadriceps of mice; and 50 μL of N-methyl-2-pyrrolidone solution (the vehicle control in this group) was injected intramuscularly into the left quadriceps of mice to monitor the effect induced by the injection on each mouse.
as §6, with “Squalene” for “Cholesterol”, “squalene (50 μL/mL)” for “cholesterol (0.25 mg/mL)”

macrophages (CD11b+) = experiment: Antigen-presenting cell recruitment in injected quadriceps muscle: macrophages (flow cytometry); assay type: in vivo, BALB/c mice; settings: 50 μL i.m. into right quadriceps, versus vehicle-injected left quadriceps
Method: as §1, §2, §3, §4
The degree of macrophage cell (CD11b^+) recruitment in each mouse was assessed according to the following formula (VII): […]
as §5, §6
as §6, with “Squalene” for “Cholesterol”, “squalene (50 μL/mL)” for “cholesterol (0.25 mg/mL)”

CD8+ T cell = experiment: T cell immunity: CD8+ T cells in splenocytes of immunized mice (flow cytometry); settings: splenocytes on day 28; i.m. on day 0 and day 14
Method: (§7) 12 BALB/c mice were randomly assigned into 4 groups (three mice per group), which were PBS group, WT1 group, WT1+IFN-alpha-based adjuvant group, and WT1+Squalene@HACH group.
(§8) PBS group: 50 μL of the phosphate buffered saline was injected intramuscularly into both of the left and right quadriceps of mice on day 0 and day 14.
(§9) WT1 group: 50 μL of the sodium citrate solution comprising 25 μL of WT1 protein was injected intramuscularly into both of the left and right quadriceps of mice on day 0 and day 14. […]
(§10) The splenocytes were isolated by the following procedure: the spleen was gently pressed with the plunger seal of a 5-mL syringe on a 70-μm cell strainer into a 50-mL tube and washed through a cell strainer with RPMI 1640 containing 10% (v/v) FBS. […] The cell solution was counted and diluted to the desired cell concentrations.
(§11) The cell suspensions obtained from the spleen of mice in each group were respectively mixed with a medium containing titrated fluorescent conjugates of monoclonal antibodies CD8a-Alexa Fluor 647 (BD Pharmingen), and CD4-FITC (Thermo Fisher). […] Finally, the stained cells were washed with staining buffer and analyzed by BD Accuri™ C6 flow cytometer.

4T1 cells = experiment: Anti-tumor activity in 4T1 breast cancer mouse model; assay type: in vivo, BALB/c mice; parameters: key to Survival Status on Day 53: Dead means that the mouse died because of the tumor; Dead * means that the mouse died from attack by other mice
Method: On Day 0, after the injection process as described above was completed, 0.05 mL of the phosphate buffered saline (PBS) comprising 4T1 cells (2×10^6 cells/mL; 4T1 cell is abreast cancer cell line) was injected subcutaneously into the abdominal mammary fat pad of the mice in each group, and the tumor volume and survival status of mice were initially monitored on this day (Day 0). Tumor volume was calculated by ½*(4*3.14/3)*(length/2)*(width/2)*height*1000, and the observation of the tumor volume and survival status was stopped if the mouse was defined as either death or paralysis or the tumor volume of the mouse exceeding 1000 mm^3.

CD4+ T cell = experiment: T cell immunity: CD4+ T cells in splenocytes of immunized mice (flow cytometry); settings: splenocytes on day 28; i.m. on day 0 and day 14
Method: as §7, §8, §9, §10, §11

[1] = Condition suitable for self-assembly of Squalene@HACH particles (appearance of 28 compositions); assay type: physicochemical; settings: by together forming squalene@HACH particles
Method: In this experiment, the condition suitable for self-assembly of Squalene@HACH particles was assessed and shown in a Ternary diagram.
There were 28 groups in this experiment, that is, the first to the 28th group. The preparation procedure of the compositions in each group was roughly the same as the experimental procedure of Composition comprising Squalene@HACH particles described in Experiment 1-1-4. The only differences were the weight of squalene, the weight of HACH, and the weight of sodium citrate solution (aqueous buffer solution).
Squalene@HACH particles in the compositions were detected and analyzed by dynamic light scattering, particle size analyzer, or transmission electron microscope. Moreover, please note that if the self-assembly of the Squalene@HACH particles occur in the composition, the composition would be a milk-like mixture solution (milk-like suspension).

[2] = individual mouse, i.m. on Day −14 and Day 0, 4T1 cells s.c. on Day 0

Compound	Dendritic cells (CD11c+) recruitment, in words (dendritic cells (CD11c+))	Macrophages (CD11b+) recruitment, in words (macrophages (CD11b+))	other results
CCCCCCCCCCCCCCCCCCN [ODA, octadecan-1-amine]	lack the ability to recruit	lack the ability to recruit	
CC(C)CCC[C@@H](C)[C@H]1CC[C@H]2[C@@H]3CC=C4C[C@@H](O)CC[C@]4(C)[C@H]3CC[C@]12C [cholesterol]	lack the ability to recruit	lack the ability to recruit	
CC(C)=CCC/C(C)=C/CC/C(C)=C/CC/C=C(\C)CC/C=C(\C)CCC=C(C)C [squalene]	lack the ability to recruit	lack the ability to recruit	
WT1: WT1 protein, targeted antigen, given alone in sodium citrate solution	lacks the ability to recruit	lacks the ability to recruit	CD8+ T cell (CD8+ T cell): 27.5%; Survival Status on Day 53 (4T1 cells; [2]): Dead; The day of the Tumor Growth (4T1 cells; [2]): Day 18; also recorded: Day 21; also recorded: Day 25; Mice died on Day 53 (4T1 cells; of 6 mice per group): 6 mice; Mice in which tumor developed (4T1 cells; of 6 mice per group): 6 mice; Tumor was initially developed between (4T1 cells; range over tumor-bearing mice of the group): 18 to 25 days; CD4+ T cell (CD4+ T cell): 34.1%
hyaluronic acid-cholesterol conjugate [HACH]			Weight units of squalene coated by 1 weight unit of HACH [1]: 80 weight units
